In the supplement of paper PMC11208160:

Experiment: recombinant barcode read abundance after kanamycin selection (control-corrected) (log10(CPM+1)); higher = more efficient recombination; sequences stand for … in AGTGCAGAGAAAATCGGCCAGTTTTCTCTGCCTGCAGTCCGCATGCCGT…AGATTTATGCAGCGGACTGCCTTTCTCCCAAAGTGATAAACCGGACAGTATCATGGACCGGTTTTCCCGGTAATCCGTATTTGCAAGGTTGGTTTCACT; site = the 11-nt target
How it was run: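 Targets and IS621 bridge RNA target-binding loops were paired in oligos, each with a promoter, a barcode and the J23119-driven first 104 bridge RNA bases. A vector carrying the remaining 73 bp and a T7-inducible recombinase received these by Gibson cloning, and the pool was co-electroporated into E. coli with a donor plasmid. Duplicate plates contained chloramphenicol/ampicillin LB agar (control) or chloramphenicol/ampicillin/kanamycin with 0.1 mM IPTG. Recombination efficiency comes from averaged, control-corrected counts per million of recombinant-junction barcodes, reported as log10(CPM+1).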
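Further: IS621 recombinase and bridge RNA in Escherichia coli cells.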

Sequence	recombinant barcode read abundance (log10)
TAGCATGCTTGGGTTCTAACCTGTTGCAC (site TAGCATGCTAT)	0.677
TAGCATGCTTGGGTTCTAACCTGTTGCAC (site TAGCATGCTCT)	0.203
TAGCATGCTTGGGTTCTAACCTGTTGCAC (site TAGCATGCTGT)	0.978
TAGCATGCTTGGGTTCTAACCTGTTGCAC (site TAGCATGCTTT)	0.306
TAGCCTTCTTGGGTTCTAACCTGTTGCTA (site TAGCCTTCTCA)	0.0251
TAGCCTTCTTGGGTTCTAACCTGTTGCTA (site TAGCCTTCTTA)	0.129
TAGCGGCCTTGGGTTCTAACCTGTTGCGG (site CCAGTATCTAT)	0.453
TAGCGGCCTTGGGTTCTAACCTGTTGCGG (site TAGCGGCCTCC)	2.23
TAGGAAACTTGGGTTCTAACCTGTTGCGT (site TAGGAAACTAC)	2.98
TAGGAAACTTGGGTTCTAACCTGTTGCGT (site TAGGACACTAC)	0.0791
TAGGAAACTTGGGTTCTAACCTGTTGCGT (site TAGGAGACTAC)	0.781
TAGGAAACTTGGGTTCTAACCTGTTGCGT (site TAGGATACTAC)	0.447
TAGGCGACTTGGGTTCTAACCTGTTGCTA (site TAGGCGACTTA)	0.454
TAGGCGACTTGGGTTCTAACCTGTTGCTA (site TAGGGCACTTA)	0.156
TAGGCGACTTGGGTTCTAACCTGTTGCTT (site TAGACGACTAA)	0.177
TAGGCGACTTGGGTTCTAACCTGTTGCTT (site TAGCCGACTAA)	0.182
TAGGCGACTTGGGTTCTAACCTGTTGCTT (site TAGGCGACTAA)	0.395
TAGGCGACTTGGGTTCTAACCTGTTGCTT (site TAGTCGACTAA)	0

Sequence	recombinant barcode read abundance (log10)
TAGGCGTCTTGGGTTCTAACCTGTTGCAG (site TAGCCTTCTCT)	0.0835
TAGGCGTCTTGGGTTCTAACCTGTTGCAG (site TAGGCGTCTCT)	2.27
TAGGCTCCTTGGGTTCTAACCTGTTGCAC (site TAGGCTCCTAT)	0.2
TAGGCTCCTTGGGTTCTAACCTGTTGCAC (site TAGGCTCCTCT)	0.0904
TAGGCTCCTTGGGTTCTAACCTGTTGCAC (site TAGGCTCCTGT)	1.94
TAGGCTCCTTGGGTTCTAACCTGTTGCAC (site TAGGCTCCTTT)	0.726
TAGGCTCCTTGGGTTCTAACCTGTTGCTT (site TACGGTCCTAA)	0.0632
TAGGCTCCTTGGGTTCTAACCTGTTGCTT (site TAGGCTCCTAA)	0.277
TAGGCTGCTTGGGTTCTAACCTGTTGCAT (site TAGGCTGCTAT)	0.882
TAGGCTGCTTGGGTTCTAACCTGTTGCAT (site TTGGGTGCTAT)	0.0414
TAGGGCACTTGGGTTCTAACCTGTTGCTA (site TAGGCGACTTA)	0.875
TAGGGCACTTGGGTTCTAACCTGTTGCTA (site TAGGGCACTTA)	1.44
TAGGGTCCTTGGGTTCTAACCTGTTGCGG (site TAAGGTCCTCT)	1.35
TAGGGTCCTTGGGTTCTAACCTGTTGCGG (site TAGGGTCCTCC)	2.88
TAGGGTTCTTGGGTTCTAACCTGTTGCGG (site CAGGGTCCTCC)	0.0906
TAGGGTTCTTGGGTTCTAACCTGTTGCGG (site TAGGGTTCTCC)	3.01
TAGGTCACTTGGGTTCTAACCTGTTGCAT (site TAGATCACTAT)	0.337
TAGGTCACTTGGGTTCTAACCTGTTGCAT (site TAGCTCACTAT)	0.0353
